The nature of data set [1]: Optical / fluorescence properties (absorption, emission, extinction coefficient, quantum yield, lifetime). It counts as physicochemical.
The nature of data set [2]: Water solubility and hydrophilic nature. It counts as physicochemical. The following applies: for solubility in water (in words): water at pH=7, in carboxylate form.
Where [3] appears, read: asterisk: in water and PBS buffer.

SMILES strings stand for the structures. Marks after values point to notes of the source that are not given here.

In data set [1] (in dichloromethane), `COCCOCC#C[B-]1(C#CCOCCOC)n2c(C)cc(C)c2C(c2ccc(I)cc2)=C2C(C)=CC(C)=[N+]21` [Ia-1] displayed a Φ of 65%, a ε of 90000 M⁻¹ cm⁻¹, a λabs of 500 nm and a λem of 511 nm.

With `CCC1=C(C)C2=C(c3ccc(I)cc3)c3c(C)c(CC)c(C)n3[B-](C#CCOCCOC)(C#CCOCCOC)[N+]2=C1C` [Ia-2], in data set [1] (in dichloromethane), the Φ was found to be 80%, the ε worked out at 82000 M⁻¹ cm⁻¹, the λabs came to 522 nm and the λem is given as 488 nm.

For the molecule `COCCOCC#C[B-]1(C#CCOCCOC)n2c(/C=C/c3ccc(OCCOCCOC)cc3)cc(C)c2C(c2ccc(I)cc2)=C2C(C)=CC(/C=C/c3ccc(OCCOCCOC)cc3)=[N+]21` [Ia-3], in data set [1] (in dichloromethane), the Φ was 75%, the ε was determined as 126600 M⁻¹ cm⁻¹, the λabs worked out at 646 nm and the λem is reported as 371 nm.

Consider `CCOC(=O)c1ccc(C2=C3C(C)=C(CC)C(C)=[N+]3[B-](C#CCOCCOC)(C#CCOCCOC)n3c(C)c(CC)c(C)c32)cc1` [Ia-6], for which, in data set [1] (in dichloromethane), the Φ is on record as 85%, the ε came to 80000 M⁻¹ cm⁻¹, the λabs is on record as 522 nm and the λem amounted to 488 nm.

Turning to `COCCOCC#C[B-]1(C#CCOCCOC)n2c(C)cc(C)c2C(c2ccc(C(=O)O)cc2)=C2C(C)=CC(C)=[N+]21` [Ia-9], in data set [2], the “water-soluble (in words)” value was “water-soluble” and the “solubility in water (in words)” value is “soluble in water”. In data set [1] (setting [3]), the Φ is listed as 60* %, the ε was 74000* M^−1 cm^−1, the λabs was 494* nm and the λem was 506* nm. Besides, in data set [1] (in dichloromethane), the Φ came out at 50%, the ε was 78500 M⁻¹ cm⁻¹, the λabs stood at 501 nm and the λem was determined as 513 nm.

With `CCC1=C(C)C2=C(c3ccc(C(=O)O)cc3)c3c(C)c(CC)c(C)n3[B-](C#CCOCCOC)(C#CCOCCOC)[N+]2=C1C` [Ia-10], in data set [2], the “water-soluble (in words)” value is listed as “water-soluble” and the “solubility in water (in words)” value is recorded as “soluble in water”. In data set [1] (setting [3]), the Φ is 70* %, the ε is 65000* M^−1 cm^−1, the λabs is 517* nm and the λem is given as 530* nm.

In data set [1] (in dichloromethane), `COCCOCC#C[B-]1(C#CCOCCOC)n2c(/C=C/c3ccc(OCCOCCOC)cc3)cc(C)c2C(c2ccc(C(=O)O)cc2)=C2C(C)=CC(/C=C/c3ccc(OCCOCCOC)cc3)=[N+]21` [Ia-11] came in with a Φ of 74%, a ε of 118000 M⁻¹ cm⁻¹, a λabs of 647 nm and a λem of 662 nm.

For the molecule `COCCOCC#C[B-]1(C#CCOCCOC)n2c(/C=C/c3ccc(OCCOCCOC)cc3)cc(C)c2C(c2ccc(C(=O)O)cc2)=C2C(C)=CC(C)=[N+]21` [Ia-12], in data set [2], the “water-soluble (in words)” value is “water-soluble” and the “solubility in water (in words)” value is “soluble in water”. Also, in data set [1] (setting [3]), the Φ is given as 70* %, the ε was 70000* M^−1 cm^−1, the λabs is reported as 564* nm and the λem is reported as 578* nm.

Take `COCCOCC#C[B-]1(C#CCOCCOC)n2c(C)cc(C)c2C(c2ccc(C(=O)NCCN)cc2)=C2C(C)=CC(C)=[N+]21` [Ia-13]: in data set [1] (in dichloromethane), the Φ was found to be 30%, the ε was determined as 65000 M⁻¹ cm⁻¹, the λabs came out at 500 nm and the λem came out at 513 nm.

`CCOC(=O)CNC(=O)c1ccc(C2=C3C(C)=CC(C)=[N+]3[B-](C#CCOCCOC)(C#CCOCCOC)n3c(C)cc(C)c32)cc1` [Ia-14]: in data set [1] (in dichloromethane), the Φ amounted to 80%, the ε was 84000 M⁻¹ cm⁻¹, the λabs was 501 nm and the λem is given as 511 nm.

Take `COCCOCC#C[B-]1(C#CCOCCOC)n2c(C)cc(C)c2C(c2ccc(C(=O)NCC(=O)O)cc2)=C2C(C)=CC(C)=[N+]21` [Ia-15]: the “water-soluble (in words)” value in data set [2] is recorded as “water-soluble”. In data set [1] (setting [3]), the Φ was 50* %, the ε is reported as 62000* M^−1 cm^−1, the λabs is on record as 495* nm and the λem is given as 507* nm. In data set [1] (in dichloromethane), this molecule yielded a Φ of 60%, a ε of 67000 M⁻¹ cm⁻¹, a λabs of 501 nm and a λem of 511 nm.

Take `CCC1=C(C)C2=C(c3ccc(I)cc3)c3c(C)c(CC)c(C)n3[B-](C#CCN(C)C)(C#CCN(C)C)[N+]2=C1C` [Ic-0]: the “ζ (fluorescence lifetime)” value in data set [1] (CH2Cl2) came out at 6.6 ns. In data set [1] (CH2Cl2, 6.1×10^−7 M), the “Fluorescence λem” value amounted to 533 nm and the “Fluorescence φ” value turned out to be 48%.

`CCC1=C(C)C2=C(c3ccc(I)cc3)c3c(C)c(CC)c(C)n3[B-](C#CC[N+](C)(C)CCCS(=O)(=O)[O-])(C#CC[N+](C)(C)CCCS(=O)(=O)[O-])[N+]2=C1C` [Ic-1]: in data set [2], the “water-soluble (in words)” value was “water-soluble”. Besides, in data set [1] (EtOH), the “Fluorescence λem” value is given as 532 nm and the “Fluorescence φ” value was 71%. Moreover, the “fluorescence lifetime” value in data set [1] (H2O) worked out at 7.0 ns. Moreover, in data set [1] (PBS buffer, 4.6×10^−7 M), the “Fluorescence λem” value was 530 nm and the “Fluorescence φ” value was found to be 61%. In data set [1] (setting [3]), the Φ is recorded as 61* %, the ε is on record as 72000* M^−1 cm^−1, the λabs was 519* nm and the λem is listed as 530* nm.

As to `CCOC(=O)c1ccc(C2=C3C(C)=C(CC)C(C)=[N+]3[B-](C#CC[N+](C)(C)CCCS(=O)(=O)[O-])(C#CC[N+](C)(C)CCCS(=O)(=O)[O-])n3c(C)c(CC)c(C)c32)cc1` [Ic-2], in data set [1] (EtOH), the “Fluorescence λem” value turned out to be 533 nm and the “Fluorescence φ” value worked out at 45%.

For the molecule `CCC1=C(C)C2=C(c3ccc(C#Cc4ccc5ccc6c(C(=O)OCCOCCOC)ccc7ccc4c5c76)cc3)c3c(C)c(CC)c(C)n3[B-](C#CC[N+](C)(C)CCCS(=O)(=O)[O-])(C#CC[N+](C)(C)CCCS(=O)(=O)[O-])[N+]2=C1C` [Ic-3], in data set [1] (EtOH), the “Fluorescence λem” value is given as 533 nm and the “Fluorescence φ” value is listed as 39%.

The values are drawn from patent publication US8476461B2, “Dipyrromethene-boron hydrophilic fluorescent compounds” (Centre National de la Recherche Scientifique (C.N.R.S.), priority 2008, dated 2013).
